# Measured values taken from patent publication US12653837B2, “Use of inhaled nitric oxide and oxygen for the treatment of pulmonary hypertension” (Bellerophon Pulse Technologies LLC, priority 2017, dated 2026).
# Legend:
# [1] = test system: symptomatic subjects with PAH; assay: Oxygen desaturation (drop in SpO2 from beginning to end of six-minute walk test), Phase 2 study IK-7001-PAH-201; assay type: in vivo, human
# Excerpt: (§1) This study was a Phase 2, placebo controlled, double-blind, randomized, clinical study to determine the safety, tolerability and efficacy of pulsed iNO versus placebo as add-on therapy in symptomatic subjects with PAH (IK-7001-PAH-201; NCT01457781). The primary outcome of this study was change from baseline in pulmonary vascular resistance (PVR). Secondary outcome measure included change in 6MWD, time to first clinical worsening event (TTCW), change in WHO functional class, change in Borg Dyspnea Score (BDS) and change in patient reported outcome (PRO) scores by the SF-36 short form version 2 and the Cambridge Pulmonary Hypertension Outcome Review (CAMPHOR).
# (§2) PAH subjects were administered pulsed iNO at a dose of 25 or 75 mcg/IBW kg/hr for up to 24 hours a day for up to 16 weeks, or received pulsed placebo (99.999% N2) for up to 24 hours a day for up to 16 weeks. The dose of 25 mcg/kg IBW/hr was administered from a mini-cylinder having 2,440 ppm NO and the dose of 75 mcg/kg IBW/hr was administered from a mini-cylinder having 4,880 ppm NO.
# (§3) All subjects were receiving at least one approved PAH therapy and were clinically symptomatic from PAH (e.g. onset or increased dyspnea on exertion, dizziness, near-syncope, syncope, chest pain or peripheral edema).
# Oxygen desaturation was measured as the drop in SpO2 level from the beginning to the end of the six-minute walk test (6MWT). Oxygen desaturation was measured at baseline and after 16 weeks of chronic treatment with iNO at a dose of 75 mcg/kg IBW/hr (iNO 75) or 25 mcg/kg IBW/hr (iNO 25) or placebo.
# [2] = test system: symptomatic subjects with PAH; assay: Exercise capacity (change in 6MWD from baseline to 16 weeks), Phase 2 study IK-7001-PAH-201; assay type: in vivo, human
# Excerpt: as §1, §2, §3
# Also shown is the change in exercise capacity, measured as the change in 6MWD from baseline to 16 weeks.
structure (smiles),measurement,setting,value
"[N]=O [iNO, nitric oxide]",Change in Oxygen Desaturation (SpO2),"[1]; iNO 25 mcg/kg IBW/hr, pulsed, up to 24 h/day, baseline to 16 weeks (LOCF), PAH subjects",−0.14
same,Change in Oxygen Desaturation (SpO2),"[1]; iNO 75 mcg/kg IBW/hr, pulsed, up to 24 h/day, baseline to 16 weeks (LOCF), all PAH subjects",−2.19
same,Change in Oxygen Desaturation (SpO2),"[1]; iNO 75 mcg/kg IBW/hr, No LTOT, baseline to 16 weeks, PAH subjects",0.40
same,Change in Oxygen Desaturation (SpO2),"[1]; iNO 75 mcg/kg IBW/hr, compliant >12 hrs per day, No LTOT, baseline to 16 weeks, PAH subjects",1.33
same,Change in Oxygen Desaturation (SpO2),"[1]; iNO 75 mcg/kg IBW/hr, compliant >12 hrs per day, with LTOT, baseline to 16 weeks, PAH subjects",−3.36
same,Change in Oxygen Desaturation (SpO2),"[1]; iNO 75 mcg/kg IBW/hr, with LTOT, baseline to 16 weeks, PAH subjects",−3.00
same,Change in 6MWD (meters),"[2]; iNO 25 mcg/kg IBW/hr, pulsed, up to 24 h/day, PAH subjects",4.7 meters
same,Change in 6MWD (meters),"[2]; iNO 75 mcg/kg IBW/hr, No LTOT, PAH subjects",−20.8 meters
same,Change in 6MWD (meters),"[2]; iNO 75 mcg/kg IBW/hr, compliant >12 hrs per day, No LTOT, PAH subjects",−29.7 meters
same,Change in 6MWD (meters),"[2]; iNO 75 mcg/kg IBW/hr, compliant >12 hrs per day, with LTOT, PAH subjects",52.4 meters
same,Change in 6MWD (meters),"[2]; iNO 75 mcg/kg IBW/hr, pulsed, up to 24 h/day, all PAH subjects",22.8 meters
same,Change in 6MWD (meters),"[2]; iNO 75 mcg/kg IBW/hr, with LTOT, PAH subjects",34.9 meters
